# Test results: publication PMC11410929, “Biochemical and crystallographic studies of L,D-transpeptidase 2 from Mycobacterium tuberculosis with its natural monomer substrate” (Communications Biology, 2024)
# Tested on: LdtMt2^C354S
# Assay type: biochemical, Mycobacterium tuberculosis
substance,measurement,value
GlcNAc-MurNAc-L-Ala-D-iGluNH2-m-DAPNH2-D-Ala-D-Ala [Compound 4],Product formation with LdtMt2^C354S,no product formation was observed
